Test results from patent publication US20250099478A1, “PLASMA KALLIKREIN INHIBITORS” (Merck Sharp & Dohme LLC, priority 2022, published 2025).

These molecules were tested against T1, Human plasma kallikrein (Homo sapiens, UniProt P03952) (assay: Plasma Kallikrein Assay). Conditions: purified Human plasma kallikrein 0.5 nM, substrate Acetyl-K-P-R-AFC; read-out: PKal IC50.
T1 construct: yields a heavy chain (371 amino acids) and a light chain (248 amino acids); purchased Enzyme Research Laboratories
Format: biochemical
Method: The effectiveness of a compound of the present invention as an inhibitor of plasma kallikrein can be determined using a relevant purified serine protease, and an appropriate synthetic substrate. The rate of hydrolysis of the chromogenic or fluorogenic substrate by the relevant serine protease was measured both in the absence and presence of compounds of the present invention. Assays were conducted at rt or at 37° C. […] A decrease in the rate of fluorescence change in the presence of inhibitor is indicative of enzyme inhibition. Such methods are known to one skilled in the art. The results of this assay are expressed as the half-maximal inhibitory concentrations (IC50), or the inhibitory constant, Ki.
Plasma kallikrein determinations were made in 50 mM HEPES buffer at pH 7.4 containing 150 mM NaCl, 5 mM CaCl2), and 0.1% PEG 8000 (polyethylene glycol; Fisher Scientific). Determinations were made using purified Human plasma kallikrein at a final concentration of 0.5 nM (Enzyme Research Laboratories) and the synthetic substrate, Acetyl-K-P-R-AFC (Sigma #C6608) at a concentration of […].
Times required to achieve equilibration between enzyme and inhibitor were determined in control experiments. […] IC50 was determined by inflection point from a four parameter logistic curve fit. Ki was calculated using the Cheng Prusoff equation, Ki=IC50/(1+([S]/Km)).

T1 sequence (P03952 391-638 limits assumed): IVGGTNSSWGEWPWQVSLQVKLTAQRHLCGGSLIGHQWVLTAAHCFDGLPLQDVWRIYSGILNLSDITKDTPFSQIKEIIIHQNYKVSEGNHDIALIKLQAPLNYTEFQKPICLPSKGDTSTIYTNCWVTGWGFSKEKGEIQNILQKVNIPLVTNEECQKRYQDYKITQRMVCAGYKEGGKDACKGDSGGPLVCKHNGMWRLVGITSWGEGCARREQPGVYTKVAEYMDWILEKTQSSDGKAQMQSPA
T1 sequence (P03952 20-390 partner limits assumed): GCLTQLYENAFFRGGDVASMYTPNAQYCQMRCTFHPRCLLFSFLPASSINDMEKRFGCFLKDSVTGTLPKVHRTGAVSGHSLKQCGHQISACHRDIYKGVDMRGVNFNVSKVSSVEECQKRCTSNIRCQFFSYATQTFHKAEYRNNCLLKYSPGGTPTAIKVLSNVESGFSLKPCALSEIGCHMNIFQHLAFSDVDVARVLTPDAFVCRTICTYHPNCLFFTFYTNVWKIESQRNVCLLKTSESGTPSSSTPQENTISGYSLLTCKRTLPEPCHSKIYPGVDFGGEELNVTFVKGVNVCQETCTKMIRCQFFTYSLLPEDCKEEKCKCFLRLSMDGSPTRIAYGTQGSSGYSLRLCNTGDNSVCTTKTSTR

IC50 [nM] | Structure (SMILES)
17.1 | O=C1Nc2ccc(Cl)c(F)c2[C@@]2(CCCN(C(=O)c3cnn(Cc4ccc5ccsc5c4)c3)C2)O1 [Example 55, (R)-1′-(1-(Benzo[b]thiophen-6-ylmethyl)-1H-pyrazole-4-carbonyl)-6-chloro-5-fluorospiro[benzo[d][1,3]oxazine-4,3′-piperidin]-2(1H)-one]
10.9 | O=C1Nc2ccc(Cl)c(F)c2[C@@]2(CCCN(C(=O)c3cnn(Cc4ccc5c(c4)COCC5)c3)C2)O1 [Example 56, (R)-6-Chloro-5-fluoro-1′-(1-(isochroman-7-ylmethyl)-1H-pyrazole-4-carbonyl)spiro[benzo[d][1,3]oxazine-4,3′-piperidin]-2(1H)-one]
29.7 | Nc1noc2ccc(Cn3cc(C(=O)N4CCC[C@@]5(C4)OC(=O)Nc4ccc(Cl)c(F)c45)cn3)cc12 [Example 57, (R)-1′-(1-((3-Aminobenzo[d]isoxazol-5-yl)methyl)-1H-pyrazole-4-carbonyl)-6-chloro-5-fluorospiro[benzo[d][1,3]oxazine-4,3′-piperidin]-2(1H)-one]
10.7 | O=C1Nc2ccc(Cl)c(F)c2[C@@]2(CCCN(C(=O)c3cnn(Cc4ccc5c(c4)CC(CO)O5)c3)C2)O1 (stereo partly drawn) [Example 58, (4R)-6-Chloro-5-fluoro-1′-(1-((2-(hydroxymethyl)-2,3-dihydrobenzofuran-5-yl)methyl)-1H-pyrazole-4-carbonyl)spiro[benzo[d][1,3]oxazine-4,3′-piperidin]-2(1H)-one]
22.9 | CC1(C)COc2cc(Cn3cc(C(=O)N4CCC[C@@]5(C4)OC(=O)Nc4ccc(Cl)c(F)c45)cn3)ccc21 [Example 59, (R)-6-Chloro-1′-(1-((3,3-dimethyl-2,3-dihydrobenzofuran-6-yl)methyl)-1H-pyrazole-4-carbonyl)-5-fluorospiro[benzo[d][1,3]oxazine-4,3′-piperidin]-2(1H)-one]
14.7 | O=C1Nc2ccc(Cl)c(F)c2[C@@]2(CCCN(C(=O)c3cnn(Cc4ccc5c(c4)COC5)c3)C2)O1 [Example 60, (R)-6-chloro-1′-(1-((1,3-dihydroisobenzofuran-5-yl)methyl)-1H-pyrazole-4-carbonyl)-5-fluorospiro[benzo[d][1,3]oxazine-4,3′-piperidin]-2(1H)-one]
36.5 | O=C1Nc2ccc(Cl)c(F)c2[C@@]2(CCCN(C(=O)c3cnn(Cc4ccc5c(c4)CNC5=O)c3)C2)O1 [Example 61, (R)-6-chloro-5-fluoro-1′-(1-((1-oxoisoindolin-5-yl)methyl)-1H-pyrazole-4-carbonyl)spiro[benzo[d][1,3]oxazine-4,3′-piperidin]-2(1H)-one]
49.5 | NS(=O)(=O)c1cccc(Cn2cc(C(=O)N3CCC[C@@]4(C3)OC(=O)Nc3ccc(Cl)c(F)c34)cn2)c1 [Example 62, (R)-3-((4-(6-chloro-5-fluoro-2-oxo-1,2-dihydrospiro[benzo[d][1,3]oxazine-4,3′-piperidine]-1′-carbonyl)-1H-pyrazol-1-yl)methyl)benzenesulfonamide]
42.6 | CS(=O)(=O)c1cccc(Cn2cc(C(=O)N3CCC[C@@]4(C3)OC(=O)Nc3ccc(Cl)c(F)c34)cn2)c1 [Example 63, (R)-6-chloro-5-fluoro-1′-(1-(3-(methylsulfonyl)benzyl)-1H-pyrazole-4-carbonyl)spiro[benzo[d][1,3]oxazine-4,3′-piperidin]-2(1H)-one]
24.2 | O=C1Nc2ccc(Cl)c(F)c2[C@@]2(CCCN(C(=O)c3cnn(Cc4ccc5c(c4)CNS5(=O)=O)c3)C2)O1 [Example 64, (R)-6-chloro-1′-(1-((1,1-dioxido-2,3-dihydrobenzo[d]isothiazol-5-yl)methyl)-1H-pyrazole-4-carbonyl)-5-fluorospiro[benzo[d][1,3]oxazine-4,3′-piperidin]-2(1H)-one]
49.7 | O=C1Nc2ccc(Cl)c(F)c2[C@@]2(CCCN(C(=O)c3nnc(Cc4ccc(F)c(Cl)c4)[nH]3)C2)O1 [Example 87, (R)-6-Chloro-1′-(5-(3-chloro-4-fluorobenzyl)-4H-1,2,4-triazole-3-carbonyl)-5-fluorospiro[benzo[d][1,3]oxazine-4,3′-piperidin]-2(1H)-one]
33.4 | O=C1Nc2ccc(Cl)c(F)c2[C@@]2(CCCN(C(=O)c3nnc(Cc4cccc(OC(F)F)c4)[nH]3)C2)O1 [Example 90, (R)-6-Chloro-1′-(5-(3-(difluoromethoxy)benzyl)-4H-1,2,4-triazole-3-carbonyl)-5-fluorospiro[benzo[d][1,3]oxazine-4,3′-piperidin]-2(1H)-one]
25.2 | Cn1cc(-c2ccc(Cc3nnc(C(=O)N4CCC[C@@]5(C4)OC(=O)Nc4ccc(Cl)c(F)c45)[nH]3)cc2)cn1 [Example 91, (R)-6-Chloro-5-fluoro-1′-(5-(4-(1-methyl-1H-pyrazol-4-yl)benzyl)-4H-1,2,4-triazole-3-carbonyl)spiro[benzo[d][1,3]oxazine-4,3′-piperidin]-2(1H)-one]
20.1 | O=C1Nc2ccc(Cl)c(F)c2[C@@]2(CCCN(C(=O)c3nnc([C@](O)(c4ccccc4)C(F)(F)F)[nH]3)C2)O1 [Example 108, (R)-6-Chloro-5-fluoro-1′-(5-((R)-2,2,2-trifluoro-1-hydroxy-1-phenylethyl)-4H-1,2,4-triazole-3-carbonyl)spiro[benzo[d][1,3]oxazine-4,3′-piperidin]-2(1H)-one]
18.3 | Cc1cccc(Cc2n[nH]c(C(=O)N3CCC[C@@]4(C3)OC(=O)Nc3ccc(Cl)c(F)c34)n2)c1 [Example 113, (R)-6-Chloro-1′-(3-(3-methylbenzyl)-1H-1,2,4-triazole-5-carbonyl)-5-fluorospiro[benzo[d][1,3]oxazine-4,3′-piperidin]-2(1H)-one]
33.1 | O=C1Nc2ccc(Cl)c(F)c2[C@@]2(CCCN(C(=O)c3nnc(Cc4ccccc4F)[nH]3)C2)O1 [Example 114, (R)-6-Chloro-5-fluoro-1′-(5-(2-fluorobenzyl)-4H-1,2,4-triazole-3-carbonyl)spiro[benzo[d][1,3]oxazine-4,3′-piperidin]-2(1H)-one]
23.9 | O=C1Nc2ccc(Cl)c(F)c2[C@@]2(CCCN(C(=O)c3nnc(Cc4cccc(C(F)(F)F)c4)[nH]3)C2)O1 [Example 115, (R)-6-Chloro-5-fluoro-1′-(5-(3-(trifluoromethyl)benzyl)-4H-1,2,4-triazole-3-carbonyl)spiro[benzo[d][1,3]oxazine-4,3′-piperidin]-2(1H)-one]
39.9 | O=C1Nc2ccc(Cl)c(F)c2[C@@]2(CCCN(C(=O)c3nnc(Cc4cccc(CO)c4)[nH]3)C2)O1 [Example 116, (R)-6-Chloro-5-fluoro-1′-(5-(3-(hydroxymethyl)benzyl)-4H-1,2,4-triazole-3-carbonyl)spiro[benzo[d][1,3]oxazine-4,3′-piperidin]-2(1H)-one]
34.8 | O=C1Nc2ccc(Cl)c(F)c2[C@@]2(CCCN(C(=O)c3nnc(Cc4ccc5c(c4)CCO5)[nH]3)C2)O1 [Example 117, (R)-6-Chloro-1′-(5-((2,3-dihydrobenzofuran-5-yl)methyl)-4H-1,2,4-triazole-3-carbonyl)-5-fluorospiro[benzo[d][1,3]oxazine-4,3′-piperidin]-2(1H)-one]
29.2 | O=C1Nc2ccc(Cl)c(F)c2[C@@]2(CCCN(C(=O)c3nnc(Cc4cccc(Cl)c4)[nH]3)C2)O1 [Example 118, (R)-6-Chloro-1′-(5-(3-chlorobenzyl)-4H-1,2,4-triazole-3-carbonyl)-5-fluorospiro[benzo[d][1,3]oxazine-4,3′-piperidin]-2(1H)-one]
47.1 | O=C1Nc2ccc(Cl)c(F)c2[C@@]2(CCCN(C(=O)c3nnc(Cc4ccc5c(c4)OCO5)[nH]3)C2)O1 [Example 119, (R)-1′-(5-(Benzo[d][1,3]dioxol-5-ylmethyl)-4H-1,2,4-triazole-3-carbonyl)-6-chloro-5-fluorospiro[benzo[d][1,3]oxazine-4,3′-piperidin]-2(1H)-one]
21.1 | O=C1Nc2ccc(Cl)c(F)c2[C@@]2(CCCN(C(=O)c3nnc(Cc4cc(F)cc(F)c4)[nH]3)C2)O1 [Example 120, (R)-6-Chloro-1′-(5-(3,5-difluorobenzyl)-4H-1,2,4-triazole-3-carbonyl)-5-fluorospiro[benzo[d][1,3]oxazine-4,3′-piperidin]-2(1H)-one]
35.4 | O=C1Nc2ccc(Cl)c(F)c2[C@@]2(CCCN(C(=O)c3nnc(Cc4cc(F)cc(Cl)c4)[nH]3)C2)O1 [Example 121, (R)-6-Chloro-1′-(5-(3-chloro-5-fluorobenzyl)-4H-1,2,4-triazole-3-carbonyl)-5-fluorospiro[benzo[d][1,3]oxazine-4,3′-piperidin]-2(1H)-one]
17.5 | O=C1Nc2ccc(Cl)c(F)c2[C@@]2(CCCN(C(=O)c3nnc(Cc4cc(Cl)c5nc[nH]c5c4)[nH]3)C2)O1 [Example 122, (R)-6-Chloro-1′-(5-((4-chloro-1H-benzo[d]imidazol-6-yl)methyl)-4H-1,2,4-triazole-3-carbonyl)-5-fluorospiro[benzo[d][1,3]oxazine-4,3′-piperidin]-2(1H)-one]
19.1 | Cc1cc(Cc2nnc(C(=O)N3CCC[C@@]4(C3)OC(=O)Nc3ccc(Cl)c(F)c34)[nH]2)cc2[nH]nnc12 [Example 123, (R)-6-Chloro-5-fluoro-1′-(5-((4-methyl-1H-benzo[d][1,2,3]triazol-6-yl)methyl)-4H-1,2,4-triazole-3-carbonyl)spiro[benzo[d][1,3]oxazine-4,3′-piperidin]-2(1H)-one]
